Laboratory results reported in patent EP4463162B1, “CONNEXIN 43 FOR USE IN TREATING BRCA1/2-MUTATED CANCER” (Fundación Profesor Novoa Santos, priority 2022, dated 2023).

Test system: HCC1937 cells
Assay: Cell culture under Anoikis-inducing conditions, western blot and imaging
Format: cell-based, human
Experimental: Protein extracts were mixed with loading buffer, which consisted of 10 % (v/v) β-mercaptoethanol (Sigma-Aldrich), 10 % SDS, 50 % (v/v) glycerol, 200 mM Tris-HCl pH 6.8 and 0.1 % bromophenol blue (Sigma-Aldrich). They were boiled at 95 °C for 8 min and 20-30 µg protein were loaded into 8, 10 or 15 % acrylamide/bis-acrylamide self-made gels, depending on the molecular weight of the target protein/s to investigate. Gels were run at 80 V for approximately 2 h using a Mini-PROTEAN Tetra electrophoresis system (BioRad), and then transferred to methanol-preactivated polyvinylidene fluoride (PVDF) membranes (Millipore) at 100 V and 4 °C for 1-1.5 h with a Mini Trans-Blot Electrophoretic Transfer Cell (BioRad). Afterwards, membranes with the transferred proteins were stained with ATX Ponceau S red staining solution (Sigma-Aldrich) for 10 min at room temperature, photographed in an Amersham Imager 600 (GE Healthcare) and unstained with distilled water. They were then blocked for 1 h at room temperature with 5 % skim milk (Sigma-Aldrich) diluted in TBST buffer (Tris-buffered saline TBS composed of 20 mM Tris and 150 mM NaCl, supplemented with 0.05 % (v/v) Tween-20, Sigma-Aldrich) with shaking. Next, membranes were incubated overnight at 4 °C with rotation with primary antibodies of interest (see antibody references in Table 3), diluted in 5 % skim milk in TBST. After 4-5 TBST washes (5 min/wash), membranes were incubated for 1 h at room temperature with rotation with secondary antibodies conjugated to horseradish peroxidase (HRP) (see antibody references in Table 3), diluted in 5 % skim milk in TBST. Membranes were rinsed again 4-5 times (5 min/wash) with TBST and the signal was developed with Pierce ECL Western Blotting Substrate (Thermo Fisher Scientific), in either a LAS-3000 Imager (Fujifilm) or an Amersham Imager 600 (GE Healthcare). When necessary, membranes were stripped for 15 min with a pH 2.2 buffer composed of […], 0.5 g SDS and 5 mL Tween20 in 500 mL distilled water. Once stripped, membranes were washed with TBST for 15 min, re-blocked with 5 % skim milk and re-probed with the antibodies of choice. Ponceau staining and western blot images were analysed and their band intensities quantitated with Image J software.
HCC1937 cells were cultured under anchorage-independent growth conditions for 48 h. For this purpose, non-adherent 90 mm polystyrene Petri dishes (Thermo Fisher Scientific) were coated with 10 mg/ml poly-HEMA (Sigma-Aldrich), which makes the dish surface highly repellent to cells, promoting their culture under forced-suspension conditions. […] Images of the cultures were taken at 0 and 48 h, and cell pellets were then collected for western blot analysis.
Anoikis refers to a form of programmed cell death induced by disruption of cell adhesion of normal epithelial cells that detach from the surrounding extracellular matrix. Anoikis resistance has been identified as a hallmark of cancer cells, as survival of normally adherent cells in suspension conditions can enable them to metastasize to distant sites. It has been studied both in the presence and absence of serum; serum deprivation constitutes another way of measuring cell resilience under adverse circumstances, as fetal bovine serum (FBS) contains a variety of growth factors and other elements required for cell survival in culture. When cultured under anchorage-independent/forced suspension conditions for 48 h (Figure 10.C), Cx43_HCC1937 cells formed smaller multicellular aggregates (dashed red lines) than EV_HCC1937, particularly in the absence of FBS.

[1] = Cx43_HCC1937, 50 µM olaparib, 48 h Anoikis-inducing conditions
[2] = EV_HCC1937, 50 µM olaparib, 48 h Anoikis-inducing conditions

O=C(c1cc(Cc2n[nH]c(=O)c3ccccc23)ccc1F)N1CCN(C(=O)C2CC2)CC1 [Olaparib, olaparib]
cell aggregates in suspension (50 µM olaparib, 48 h, effect more pronounced in Cx43_HCC1937 than EV): partial disintegration of these clusters
Total protein PARylation [1]: decrease
cleaved caspase 3 levels [1]: further increased this cleavage
γH2AX (Cx43_HCC1937, 50 µM olaparib, 48 h Anoikis-inducing conditions, absence of serum): further exacerbated this outcome
Total protein PARylation [2]: rise
cleaved caspase 3 levels [2]: no significant changes
